Test results taken from patent US8236778B2, “Synergistic 5′-methylthioadenosine combinations” (Proyecto de Biomedicina Cima, S.L., priority 2008, dated 2012).

Key:
[1] = test system: Chronic-Relapsing EAE (RR-EAE); conditions: model of Multiple Sclerosis; cited from earlier work
[2] = test system: acute Experimental Autoimmune Encephalomyelitis (EAE); conditions: model of Multiple Sclerosis; cited from earlier work
[3] = wide range of doses; cited from earlier work
acute EAE model = test: EAE disease severity score in MS animal model (acute EAE model, rMOG35-55 immunization); assay type: in vivo; conditions: female C57/bl6 mice, daily i.p. treatment starting after immunization, followed to day 31; (27.84 mg/kg), GA 0.1 mg/mouse/day; n=5 per group
MS relapses = conditions: current GA therapy; cited from earlier work

Compound: CSC[C@H]1O[C@@H](n2cnc3c(N)ncnc32)[C@H](O)[C@@H]1O [MTA, 5′-methylthioadenosine]
- effect on Chronic-Relapsing EAE [1]: ameliorates
- effect on acute EAE [2]: capable of preventing
- side effects [3]: without side effects
- course / severity of the disease (EAE) (acute EAE model): course of the disease with intermediate intensity

Compound: L-glutamic acid polymer with L-alanine, L-lysine and L-tyrosine, acetate (salt) [GA, reference compound]
- efficacy in preventing new relapses in MS (MS relapses): not more than 25%
- course / severity of the disease (EAE) (acute EAE model): course of the disease with intermediate intensity
